Measurements from the supplement of paper PMC8671470.
± gives the standard deviation of the averaged measurements.

Legend:
HL-60 = test: cell viability (% survival relative to DMSO control); higher = less cytotoxic; conditions: 72 h
Procedure, shortened: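 In 384-well plates, the full library was rescreened in duplicate on HL-60 cells in RPMI 1640 with 10% FBS, at 1–10,000 nM in five tenfold concentrations, for 72 h at 37 °C, 5% CO2. Each run also held DMSO or 100 nM of one of three metabolic inhibitors. Viability was measured by CellTiter-Glo and normalised to DMSO wells and to wells with proteasome inhibitor, present at 10 μM. Any area under the curve comes from four-parameter log-logistic fitting with drc and PharmacoGx.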

LAMA-84 = test: cell viability (% survival relative to DMSO control, bortezomib = 0%); higher = less cytotoxic; conditions: 72 h
Procedure, shortened: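 After 72 h at 37 °C with 5% CO2, cell viability in 384-well plates was measured by CellTiter-Glo luminescence. The plates held compounds pre-printed at 1, 10, 100, 1000 or 10000 nM in duplicate, and cells from 10 AML and 5 CML lines seeded at densities titrated to linear growth. Percent survival is the duplicate mean, normalised to vehicle as 100% and a 10 µM positive control as 0%.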

[1] = 0.001 µM, co-treatment: AZD3965 100 nM
[2] = 0.001 µM, co-treatment: DMSO vehicle
[3] = 0.001 µM, co-treatment: GSK2194069 100 nM
[4] = 0.001 µM, co-treatment: pictilisib 100 nM
[5] = 0.01 µM, co-treatment: AZD3965 100 nM
[6] = 0.01 µM, co-treatment: DMSO vehicle
[7] = 0.01 µM, co-treatment: GSK2194069 100 nM
[8] = 0.01 µM, co-treatment: pictilisib 100 nM
[9] = 0.1 µM, co-treatment: AZD3965 100 nM
[10] = 0.1 µM, co-treatment: DMSO vehicle
[11] = 0.1 µM, co-treatment: GSK2194069 100 nM
[12] = 0.1 µM, co-treatment: pictilisib 100 nM
[13] = 1 µM, co-treatment: AZD3965 100 nM
[14] = 1 µM, co-treatment: DMSO vehicle
[15] = 1 µM, co-treatment: GSK2194069 100 nM
[16] = 1 µM, co-treatment: pictilisib 100 nM
[17] = 10 µM, co-treatment: AZD3965 100 nM
[18] = 10 µM, co-treatment: DMSO vehicle
[19] = 10 µM, co-treatment: GSK2194069 100 nM
[20] = 10 µM, co-treatment: pictilisib 100 nM

Row | SMILES | cell viability (HL-60; [1]) [%] | cell viability (HL-60; [2]) [%] | cell viability (HL-60; [3]) [%] | cell viability (HL-60; [4]) [%] | cell viability (HL-60; [5]) [%] | cell viability (HL-60; [6]) [%] | cell viability (HL-60; [7]) [%] | cell viability (HL-60; [8]) [%] | cell viability (HL-60; [9]) [%] | cell viability (HL-60; [10]) [%] | cell viability (HL-60; [11]) [%] | cell viability (HL-60; [12]) [%] | cell viability (HL-60; [13]) [%] | cell viability (HL-60; [14]) [%] | cell viability (HL-60; [15]) [%] | cell viability (HL-60; [16]) [%] | cell viability (HL-60; [17]) [%] | cell viability (HL-60; [18]) [%] | cell viability (HL-60; [19]) [%] | cell viability (HL-60; [20]) [%] | cell viability (LAMA-84; 1 nM) [%] | cell viability (LAMA-84; 10 nM) [%] | cell viability (LAMA-84; 100 nM) [%] | cell viability (LAMA-84; 1000 nM) [%] | cell viability (LAMA-84; 10000 nM) [%]
1 | CC(C)c1nc(CN(C)C(=O)N[C@H](C(=O)N[C@@H](Cc2ccccc2)C[C@H](O)[C@H](Cc2ccccc2)NC(=O)OCc2cncs2)C(C)C)cs1 [Ritonavir] | 99.9 ± 2.7 | 101 ± 2.2 | 94.5 ± 6.6 | 105 ± 2 | 102 ± 1.6 | 103.3 ± 0.22 | 110 ± 17 | 101 ± 2.1 | 78.3 ± 26 | 94.5 ± 3.8 | 88 ± 24 | 97.5 ± 4.1 | 102 ± 3.5 | 87.4 ± 17 | 86.6 ± 30 | 93.9 ± 7.7 | 104 ± 3.9 | 105.8 ± 0.3 | 67.1 ± 3.1 | 99.2 ± 1.5 | 115 | 103 | 102 | 100 | 88.6
2 | CCCCCCCCCCCC(=O)c1c(O)c(C(=O)CCCCCCCCCCC)c(O)c(C2CC(c3ccc(O)cc3)Oc3cc(O)ccc32)c1O (stereo not given) | 95.8 ± 4.7 | 99.8 ± 5.4 | 101 ± 3.5 | 107 ± 18 | 104 ± 2.3 | 98.29 ± 0.34 | 96.5 ± 1.7 | 107 ± 1.4 | 97.5 ± 3.7 | 99.11 ± 0.51 | 101 ± 3.1 | 99.9 ± 7.8 | 107 ± 11 | 102.2 ± 0.57 | 104 ± 11 | 101 ± 3.3 | 101 ± 3.6 | 104.7 ± 0.063 | 100 ± 3.4 | 95.4 ± 10 | 105 | 99.9 | 114 | 103 | 99.1
3 | CC[C@H](C)C(=O)O[C@H]1C[C@@H](C)C=C2C=C[C@H](C)[C@H](CC[C@@H]3C[C@@H](O)CC(=O)O3)[C@H]21 [Lovastatin] | 92.4 ± 13 | 96.8 ± 1.3 | 104 ± 5.5 | 98.2 ± 4.6 | 104.3 ± 0.46 | 102 ± 4.3 | 107 ± 2.7 | 105 ± 0.52 | 101 ± 8.2 | 101 ± 4.2 | 104 ± 4.1 | 98.1 ± 9.3 | 98.2 ± 4.4 | 96.5 ± 3.8 | 102 ± 1.6 | 94.1 ± 12 | 94.1 ± 4.6 | 95.5 ± 2.6 | 98.48 ± 0.87 | 75.54 ± 0.27 | 88.8 | 103 | 104 | 92.3 | 90.9
4 | O=C(NCCCCCCNC(=O)ONC1=CCCCC1)ONC1=CCCCC1 | 99.5 ± 1.2 | 97 ± 1.2 | 99.1 ± 7.2 | 105 ± 11 | 99 ± 1.3 | 99.2 ± 2.3 | 101 ± 3 | 102 ± 1.8 | 99.3 ± 1 | 96.8 ± 1.2 | 70.1 ± 47 | 104 ± 4.3 | 100.9 ± 0.23 | 102 ± 1.3 | 87.3 ± 32 | 95 ± 25 | 98.9 ± 0.37 | 97.3 ± 2.2 | 105 ± 10 | 86.2 ± 13 | 104 | 103 | 112 | 101 | 103
5 | Nc1ccccc1C(=O)C[C@H](N)C(=O)O [L-Kynurenine] | 93.4 ± 7.9 | 92.2 ± 2.7 | 96.6 ± 7.5 | 88.1 ± 2.1 | 77.9 ± 30 | 96.4 ± 5 | 94.9 ± 2.8 | 95.5 ± 3.9 | 104 ± 9.4 | 100.5 ± 0.45 | 101 ± 1.3 | 103 ± 0.92 | 99.66 ± 0.67 | 99 ± 3.1 | 98.86 ± 0.35 | 94.5 ± 6.2 | 104 ± 2.6 | 106.8 ± 0.64 | 100 ± 3.5 | 105 ± 5.5 | 105 | 105 | 100 | 107 | 107
6 | O=C(O)c1cc(Cl)cc(Cl)c1O [3,5-Dichlorosalicylic Acid] | 107 ± 1.5 | 104 ± 1.9 | 97.6 ± 4.4 | 80.1 ± 5.9 | 98.5 ± 2.3 | 105 ± 2.4 | 97 ± 9.9 | 93.1 ± 1.8 | 99.4 ± 1.1 | 101 ± 2.7 | 95.56 ± 0.17 | 100 ± 1.9 | 101 ± 4.1 | 106 ± 6.3 | 97.5 ± 9 | 107 ± 2.9 | 101 ± 4.9 | 101 ± 5.5 | 102 ± 7.3 | 103 ± 8.5 | 105 | 87.4 | 97.5 | 103 | 92
7 | Cl.NC(CCC(=O)Nc1ccc([N+](=O)[O-])cc1)C(=O)O (stereo not given) [GPNA] | 96.99 ± 0.35 | 98.13 ± 0.34 | 99.6 ± 1.1 | 100.2 ± 0.41 | 97.1 ± 2.5 | 100 ± 4.6 | 104 ± 9.2 | 97.4 ± 1.8 | 103.3 ± 0.85 | 98.7 ± 5.5 | 99.4 ± 5.2 | 98.5 ± 1.1 | 102 ± 2.1 | 102 ± 4.2 | 85.4 ± 20 | 98.7 ± 7.6 | 94.3 ± 2.4 | 98.5 ± 2.3 | 96.8 ± 1.4 | 92.5 ± 1.4 | 109 | 109 | 98 | 111 | 100
8 | CN(C)C(=O)[C@H](O)[C@H](Cc1ccccc1)NC(=O)c1cc2cc(Cl)ccc2[nH]1 | 105 ± 5.8 | 101 ± 1.7 | 102 ± 4.8 | 97.4 ± 5.6 | 101 ± 3.7 | 102.3 ± 0.13 | 110 ± 4.8 | 107 ± 14 | 98.4 ± 2.1 | 95.7 ± 11 | 101 ± 3.4 | 93.8 ± 2.3 | 101 ± 5.3 | 100 ± 3 | 100 ± 4.2 | 96 ± 1.2 | 100.2 ± 0.61 | 110 ± 5.4 | 99.4 ± 8.9 | 97.3 ± 7 | 94.6 | 97.6 | 114 | 107 | 83.3
9 | COc1ccc(C(=O)Nc2c(Cl)cncc2Cl)cc1OC1CCCC1 [Piclamilast] | 104 ± 0.16 | 101 ± 4.7 | 101.3 ± 0.13 | 107 ± 1.1 | 104 ± 3.2 | 100.9 ± 0.19 | 100 ± 4.4 | 107 ± 3.4 | 95.5 ± 6.8 | 98.4 ± 1.4 | 98.8 ± 2 | 96.4 ± 8.2 | 105 ± 6.2 | 97.54 ± 0.89 | 97.1 ± 1.4 | 95.35 ± 0.29 | 107 ± 5.9 | 104.6 ± 0.65 | 109.3 ± 0.53 | 106 ± 11 | 87.5 | 114 | 91.2 | 110 | 103
